Data as given in US7982043B2, “Protein tyrosine kinase enzyme inhibitors” (Wyeth LLC, priority 2003, dated 2011).
Converted amounts (≈) assume the structure as drawn. Where two headings read alike, the source gives them in different places. Values belong to the compound of their own block, whether it stands above or below them.

Key:
Assay type in all cases: cell-based
[1] = system: SK-Br-3 cells; test: Cell proliferation assay (SRB), SK-Br-3; conditions: for IC50: Homo sapiens, SK-BR-3, 48 h, read-out: CELL IC50 SKBr3
[2] = system: SW620 cells; test: Cell proliferation assay (SRB), SW620; conditions: for IC50: Homo sapiens, SW-620, 48 h, read-out: CELL IC50 SW620
[3] = target: mouse fibroblast cell line transfected with the HER-2 oncogene (3T3/neu) (UniProt P04626, cells depend on it, species not given); test: Cell proliferation assay (SRB), 3T3/neu; conditions: for GI50: read-out: CELL IC50 3T3/NEU (converted)
[4] = system: A431 cells; test: Cell proliferation assay (SRB), A431; conditions: for IC50: Homo sapiens, A-431, 48 h, read-out: CELL IC50 A431
[5] = system: MDA-MB-435 cells; test: Cell proliferation assay (SRB), MDA-MB-435; conditions: for IC50: Homo sapiens, MDA-MB-435, 48 h, read-out: CELL IC50 MDA-MB-435

Compound: 4-{3-chloro-4-[(4-oxo-3,4-dihydro-2-quinazolinyl)sulfanyl]anilino}-7-methoxy-6-hydro-2-quinazolinyl)sulfanyl]anilino}-7-methoxy-6-nitro-3-quinolinecarbonitrile [Example 44]
- CELL IC50 SKBr3 [1]: 4.54 µg/mL
- CELL IC50 SW620 [2]: 1.96 µg/mL
- CELL IC50 3T3/NEU ([3]; mouse fibroblast cell line transfected with the her-2 oncogene (3t3/neu)): 4.54 µg/mL
- CELL IC50 A431 [4]: 2.28 µg/mL
- CELL IC50 MDA-MB-435 [5]: >5 µg/mL

Compound: C=CC(=O)Nc1ccc2ncc(C#N)c(Nc3ccc(Sc4nccn4C)c(Cl)c3)c2c1 [Example 21, N-{4-[3-Chloro-4-(1-methyl-1H-imidazol-2-ylsulfanyl)-phenylamino]-3-cyano-quinolin-6-yl}-acrylamide]
- IC50 ([1]; EGFR −, Her-2 +++, 2 days, SRB): 0.01 µg/mL (≈ 0.0217 µM)
- IC50 ([2]; EGFR −, Her-2 −, 2 days, SRB): 1.84 µg/mL (≈ 3.99 µM)
- GI50 ([3]; EGFR −, Her-2 +++, 2 days, SRB): 1000 nM
- IC50 ([4]; EGFR +++, Her-2 +, 2 days, SRB): 0.62 µg/mL (≈ 1.35 µM)
- IC50 ([5]; EGFR −, Her-2 −, 2 days, SRB): 4.57 µg/mL (≈ 9.91 µM)

Compound: CCOc1cc2ncc(C#N)c(Nc3ccc4cc[nH]c4c3)c2cc1OCC [Example 22, 6,7-Diethoxy-4-(1H-indol-6-ylamino)-quinoline-3-carbonitrile]
- IC50 ([1]; EGFR −, Her-2 +++, 2 days, SRB): 0.0374 µg/mL (≈ 0.1 µM)
- IC50 ([2]; EGFR −, Her-2 −, 2 days, SRB): 0.286 µg/mL (≈ 0.768 µM)
- GI50 ([3]; EGFR −, Her-2 +++, 2 days, SRB): 2510 nM
- IC50 ([4]; EGFR +++, Her-2 +, 2 days, SRB): 0.123 µg/mL (≈ 0.33 µM)
- IC50 ([5]; EGFR −, Her-2 −, 2 days, SRB): 0.365 µg/mL (≈ 0.98 µM)

Compound: CCOc1cc2ncc(C#N)c(Nc3ccc4c(c3)OCCO4)c2cc1OCC [Example 23, 4-(2,3-Dihydro-benzo[1,4]dioxin-6-ylamino)-6,7-diethoxy-quinoline-3-carbonitrile]
- GI50 ([3]; EGFR −, Her-2 +++, 2 days, SRB): 958 nM

Compound: COCCOc1cc2ncc(C#N)c(Nc3ccc4cn[nH]c4c3)c2cc1OCCOC [Example 24, 4-(1H-Indazol-6-ylamino)-6,7-bis-(2-methoxy-ethoxy)-quinoline-3-carbonitrile]
- GI50 ([3]; EGFR −, Her-2 +++, 2 days, SRB): > 11500 nM

Compound: CCOc1cc2ncc(C#N)c(Nc3ccc4c(=O)[nH][nH]c(=O)c4c3)c2cc1OCC [Example 25, 4-(1,4-Dioxo-1,2,3,4-tetrahydro-phthalazin-6-ylamino)-6,7-diethoxy-quinoline-3-carbonitrile]
- GI50 ([3]; EGFR −, Her-2 +++, 2 days, SRB): > 12000 nM

Compound: CCOc1cc2ncc(C#N)c(Nc3ccc4c(c3)CCC4)c2cc1OCC [Example 26, 6,7-Diethoxy-4-(indan-5-ylamino)-quinoline-3-carbonitrile]
- IC50 ([2]; EGFR −, Her-2 −, 2 days, SRB): 0.294 µg/mL (≈ 0.787 µM)
- GI50 ([3]; EGFR −, Her-2 +++, 2 days, SRB): 53 nM

Compound: CCOc1cc2ncc(C#N)c(Nc3ccc4[nH]c(=O)oc(=O)c4c3)c2cc1OCC [Example 27, 4-(2,4-Dioxo-1,4-dihydro-2H-benzo[d][1,3]oxazin-6-ylamino)-6,7-diethoxy-quinoline-3-carbonitrile]
- GI50 ([3]; EGFR −, Her-2 +++, 2 days, SRB): 11000 nM

Compound: CCOc1cc2ncc(C#N)c(Nc3ccc4c(c3)CCC4=O)c2cc1OCC [Example 28, 6,7-Diethoxy-4-(1-oxo-indan-5-ylamino)-quinoline-3-carbonitrile]
- IC50 ([2]; EGFR −, Her-2 −, 2 days, SRB): 0.0244 µg/mL (≈ 0.063 µM)
- GI50 ([3]; EGFR −, Her-2 +++, 2 days, SRB): 80.3 nM
- IC50 ([4]; EGFR +++, Her-2 +, 2 days, SRB): 0.0181 µg/mL (≈ 0.0467 µM)

Compound: CCOc1cc2ncc(C#N)c(Nc3ccc4c(c3)C(=O)OC4)c2cc1OCC [Example 29, 6,7-Diethoxy-4-(3-oxo-1,3-dihydro-isobenzofuran-5-ylamino)-quinoline-3-carbonitrile]
- GI50 ([3]; EGFR −, Her-2 +++, 2 days, SRB): 8480 nM

The next lines start with the values.

- CELL IC50 SKBr3 ([1]; EGFR −, Her-2 +++, 2 days, SRB): 0.336 µg/mL
- CELL IC50 SW620 ([2]; EGFR −, Her-2 −, 2 days, SRB): 0.146 µg/mL
- CELL IC50 3T3/NEU ([3]; EGFR −, Her-2 +++, 2 days, SRB): 0.251 µg/mL
- CELL IC50 A431 ([4]; EGFR +++, Her-2 +, 2 days, SRB): 0.257 µg/mL
- CELL IC50 MDA-MB-435 ([5]; EGFR −, Her-2 −, 2 days, SRB): 0.00328 µg/mL
Compound: CCOc1cc2ncc(C#N)c(Nc3ccc4c(c3)S(=O)(=O)C=C4)c2cc1OCC [Example 30, 4-(1,1-Dioxo-1H-1-benzo[b]thiophen-6-ylamino)-6,7-diethoxy-q uinoline-3-carbonitrile]

- GI50 ([3]; EGFR −, Her-2 +++, 2 days, SRB): 74.3 nM
Compound: CCOc1cc2ncc(C#N)c(Nc3ccc4cn[nH]c4c3)c2cc1OC [Example 31, 7-Ethoxy-4-(1H-indazol-6-ylamino)-6-methoxy-quinoline-3-carbonitrile]

- GI50 ([3]; EGFR −, Her-2 +++, 2 days, SRB): 13400 nM
Compound: CCOc1cc2c(Nc3ccc4cn[nH]c4c3)c(C#N)cnc2cc1OC [Example 32, 6-Ethoxy-4-(1H-indazol-6-ylamino)-7-methoxy-quinoline-3-carbonitrile]

- GI50 ([3]; EGFR −, Her-2 +++, 2 days, SRB): > 11200 nM
Compound: CCOc1cc2ncc(C#N)c(Nc3ccc4c(c3)C(=O)NCC(=O)N4C)c2cc1OCC [Example 33, 6,7-Diethoxy-4-(1-methyl-2,5-dioxo-2,3,4,5-tetrahydro-1H-benzo[e][1,4]diazepin-7-ylamino)-quinoline-3-carbonitrile]
